Laboratory results: article PMC8199124, “Design, Synthesis and In-Vitro Biological Evaluation of Antofine and Tylophorine Prodrugs as Hypoxia-Targeted Anticancer Agents” (Molecules, 2021)
Values after ≈ are worked out from the molar mass of the structure shown. Like-named read-outs stand apart in the source and are kept apart here.

Legend:
[1] = Solubility in PBS (pH 7.4); format: physicochemical; settings: aqueous buffer, mean ± SE
Experimental: (§1) Water solubility, logD, and PAMPA-BBB were evaluated using the protocols we previously described.

in vitro = settings: male, Balb/c, pH 7.4
Experimental: Mouse hepatic microsomes were isolated from pooled, perfused livers of Balb/c male mice according to the standard protocol. […] Microsomal incubations were carried out in 96-well plates in 5 aliquots of 40 μL each. […] Control incubations were performed by replacing the NADPH-cofactor system with PBS. The additional control incubations in PBS (with 3.3 mM MgCl2) without added microsomes were carried out in this study. […] The incubations were performed in duplicates. Five time points over 40 min had been analyzed. The reactions were stopped by adding 12 volumes of 90% acetonitrile-water to incubation aliquots, followed by protein sedimentation by centrifuging at 5500 rpm for 3 min. The supernatants were analyzed using LC-MS as mentioned above.

SW480 = assay: Cytotoxicity (MTT) under normoxia, SW480; format: cell-based; settings: Homo sapiens
Experimental: (§2) The cytotoxicity of the compounds 5a–c and their parent alkaloids was evaluated by the 3-[4,5-dimethylthiazole-2-yl]-2,5-diphenyltetrazolium bromide (MTT) assay against 5 cancerous and 2 non-cancerous cell lines (Table 4).
(§3) The eight cell lines HEK293 (Human embryonic kidney 293), CHO-K1 (Chinese hamster ovary K1), MCF-7 cells (Human breast adenocarcinoma), HCT116 (human colorectal carcinoma), RKO (Human rectal carcinoma), SW480 (human colorectal carcinoma), H460 (Human lung cancer), and MRC5 (Normal human foetal lung fibroblast), were obtained from the ATCC. The cell lines were routinely grown in alpha minimum essential medium (α-MEM) containing 5% foetal calf serum (FCS). The appropriate number of cells (HCT116 = 400 cells/well, H460 cells = 600 cells/well) were seeded into 96-well plates under normoxic or hypoxic conditions. Cells were plated in 100 µL α-MEM containing 10% FCS, 10mM D-Glucose and 0.2mM 2′-deoxycytidine. After incubation for 2 h, the compounds were added at the appropriate concentration and incubated for further 4 h. The cells were then washed three times with drug-free α-MEM (containing 5% FCS and pen/strep). The plates were then incubated for 5 days under normoxic conditions. The cells were stained with sulphorhodamine B to measure total cells. The IC50 was determined by interpolation as the compound concentration reducing staining to 50% of controls on the same plate.

HCT116 [2] = assay: Cytotoxicity (MTT) under normoxia, HCT116; format: cell-based; settings: Homo sapiens
Experimental: as §2, §3

LogD determination = format: physicochemical; settings: mean ± SE
Experimental: as §1

[3] = BBB-Parallel Artificial Membrane Permeability Assay (BBB-PAMPA); format: in vitro ADME; settings: mean ± SE
Experimental: The physicochemical properties of the new compounds were evaluated (Table 1). […] Consequently, these derivatives lost their BBB penetrability, as predicted by the BBB-Parallel Artificial Membrane Permeability Assay (BBB-PAMPA), whereas their parent alkaloids had free passage through the BBB.
as §1

MRC5 = assay: Cytotoxicity (MTT) under normoxia, MRC5; format: cell-based; settings: Homo sapiens
Experimental: as §2, §3

MCF7 = assay: Cytotoxicity (MTT) under normoxia, MCF7; format: cell-based; settings: Homo sapiens
Experimental: as §2, §3

H460 = assay: Cytotoxicity under normoxia and hypoxia (anaerobic chamber, sulphorhodamine B), H460; format: cell-based, human; settings: for IC50: Homo sapiens, NCI-H460, 4 h exposure, 5 days growth
Experimental: (§4) We also checked if the designed prodrugs were able to liberate the active alkaloids in hypoxic tumors by testing them under hypoxic conditions using an anaerobic chamber. The three prodrugs 5a–c and their parent alkaloids as well as the reference compounds PR-104A, the parent alcohol form of the phosphate pre-prodrug PR-104, and evofosfamide were tested using the HCT116 and H460 cell lines under both normoxic and hypoxic conditions (Table 5). The prodrugs were much less cytotoxic than the parent drugs, in agreement with our observations using the other cell lines described above (Figure 6).
(§5) The extent to which a prodrug is deactivated relative to its parent drug under normoxic conditions is defined as the Deactivation Ratio (DR). The DR can be simply calculated as DR = IC50 (prodrug)/IC50 (parent drug).
(§6) The efficacy of prodrug activation under hypoxic conditions can be expressed by the Hypoxia Cytotoxicity Ratio (HCR), which can be calculated for a given prodrug as: HCR = normoxic IC50/hypoxic IC50.
as §3

HEK293 = assay: Cytotoxicity (MTT) under normoxia, HEK293; format: cell-based; settings: Homo sapiens
Experimental: as §2, §3

RKO = assay: Cytotoxicity (MTT) under normoxia, RKO; format: cell-based; settings: Homo sapiens, read-out: IC50 RKO
Experimental: as §2, §3

HCT116 [4] = assay: Cytotoxicity under normoxia and hypoxia (anaerobic chamber, sulphorhodamine B), HCT116; format: cell-based, human; settings: for IC50: Homo sapiens, HCT-116, 4 h exposure, 5 days growth
Experimental: as §4, §5, §6, §3

[5] = Plasma protein binding (PPB); format: in vitro ADME; settings: mean ± SE, read-out: PPB (% of Bound Compound) (converted)
Experimental: The physicochemical properties of the new compounds were evaluated (Table 1).

CHO-K1 = assay: Cytotoxicity (MTT) under normoxia, CHO-K1; format: cell-based, Chinese hamster; settings: Cricetulus griseus
Experimental: as §2, §3

[6] = Human plasma stability test; format: in vitro ADME; settings: 37 °C, up to 24 h, read-out: t1/2 (Human Plasma) (converted)
Experimental: (§7) Incubations were carried out in 6 aliquots of 70 μL each in duplicates. […] The reactions were stopped by adding 350 μL of acetonitrile with subsequent plasma proteins sedimentation by centrifuging at 5500 rpm for 5 min. Supernatants were analyzed by LC-MS using Shimadzu VP HPLC system including vacuum degasser, gradient pumps, reverse phase column, column oven and autosampler. The HPLC system was coupled with tandem mass spectrometer API 3000 (PE Sciex, Foster City, CA, USA). Both the positive and negative ion modes of the TurboIonSpray ion source were used. The acquisition and analysis of the data were performed using Analyst 1.5.2 software (PE Sciex, API 3000 mass spectrometer, Foster City, CA, USA). The percentage of the test compounds remaining after incubation in plasma and their half-lives (T1/2) were calculated.

[7] = Mouse plasma stability test; format: in vitro ADME; settings: 37 °C, up to 24 h, read-out: t1/2 (Mouse Plasma) (converted)
Experimental: as §7

[8] = H460, hypoxia, read-out: IC50 (Hypoxia)
[9] = H460, normoxia, read-out: IC50 (Normoxia)
[10] = HCT116, hypoxia, read-out: IC50 (Hypoxia)
[11] = HCT116, normoxia, read-out: IC50 (Normoxia)
[12] = H460, HCR = normoxic IC50/hypoxic IC50
[13] = HCT116, HCR = normoxic IC50/hypoxic IC50

SMILES | solubility [1] | Kel (elimination rate constant) (in vitro; mouse, 2 μM) | half-life at 2 μM (in vitro; mouse, microsomes) | logD (LogD determination) | Permeability (Papp) [3] | HCR (Hypoxia Cytotoxicity Ratio) (H460) | IC50 (H460; [8]) | IC50 (H460; [9]) | HCR (Hypoxia Cytotoxicity Ratio) (HCT116 [4]) | IC50 (HCT116 [4]; [10]) | IC50 (HCT116 [4]; [11]) | fraction unbound [5] | IC50 (SW480; SW480, read-out: IC50 SW480) | IC50 (HCT116 [2]; HCT-116, read-out: IC50 HCT116) | IC50 (MRC5; MRC5, read-out: IC50 MRC5) | IC50 (MCF7; MCF7, read-out: IC50 MCF7) | HCR (Hypoxia Cytotoxicity Ratio) (H460; [12]) | IC50 (RKO) | HCR (Hypoxia Cytotoxicity Ratio) (HCT116 [4]; [13]) | IC50 (HEK293; HEK293, read-out: IC50 HEK293) | further results
COc1ccc2c3c(c4cc(OC)c(OC)cc4c2c1)C[C@H]1CCCN1C3 [(R)-Antofine, (R)-antofine] | 27 ± 2 µM (≈ 9.81 µg/mL) | 0.002 ± 0 min⁻¹ | 1.12 ± 0.035 h | 3.68 ± 0.03 | −5.6 ± 0.58 Log [10^−6 cm/s] | 0.6 | 25.4 ± 9 nM | 29.2 ± 12 nM | 0.4 | 16.7 ± 9 nM | 23.9 ± 7 nM | 0.019 |  |  |  |  |  |  |  |  | IC50 (SW480; SW480, normoxia, read-out: IC50 SW480): 9 ± 2 nM; IC50 (HCT116 [2]; HCT-116, normoxia, read-out: IC50 HCT116): 2 nM; IC50 (MRC5; MRC5, normoxia, read-out: IC50 MRC5): 6 ± 2 nM; IC50 (MCF7; MCF7, normoxia, read-out: IC50 MCF7): 2 nM; IC50 (HEK293; HEK293, normoxia, read-out: IC50 HEK293): 30 ± 43 nM; IC50 (RKO; normoxia): 6 ± 1 nM; IC50 (CHO-K1; CHO-K1, normoxia, read-out: IC50 CHO-K1): 33 ± 50 nM
COc1cc2c3c(c4cc(OC)c(OC)cc4c2cc1OC)CN1CCC[C@@H]1C3 [(R)-Tylophorine] |  |  |  |  |  |  | 161 ± 77 nM | 175 ± 78 nM |  | 56.4 ± 35 nM | 1710 ± 965 nM |  | 1150 ± 244 nM | 440 ± 36 nM | 95 ± 6 nM | 101 ± 88 nM | 1.1 | 338 ± 61 nM | 0.6 |  | 
COc1cc2c3c(c4cc(OC)c(OC)cc4c2cc1OC)CN1CCC[C@H]1C3 [(S)-Tylophorine] | 2 µM (≈ 0.787 µg/mL) |  |  | 3.14 ± 0.02 | −5.4 ± 0.17 Log [10^−6 cm/s] |  | 102 ± 32 nM | 108 ± 28 nM |  | 50.1 ± 18 nM | 35.1 ± 15 nM | 0.061 | 69 ± 20 nM | 85 ± 6 nM | 27 ± 2 nM | 62 ± 13 nM | 1.1 | 202 ± 3 nM | 0.5 | 16 ± 26 nM | half-life at 2 μM (in vitro; microsomes): 2.12 ± 0.05 h; IC50 (CHO-K1; CHO-K1, read-out: IC50 CHO-K1): 35 ± 42 nM
CN(C)CCCN1c2ccccc2Sc2ccc(Cl)cc21 [Chlorpromazine] |  |  |  |  | −5.4 ± 0.13 Log [10^−6 cm/s] |  |  |  |  |  |  |  |  |  |  |  |  |  |  |  | 
CN1CCN(C2=Nc3cc(Cl)ccc3Nc3ccccc32)CC1 [Clozapine] |  |  |  |  | −5.1 ± 0.12 Log [10^−6 cm/s] |  |  |  |  |  |  |  |  |  |  |  |  |  |  |  | 
COc1ccc2c3c(c4cc(OC)c(OC)cc4c2c1)C[C@H]1CCC[N+]1(Cc1c([N+](=O)[O-])ncn1C)C3.[Br-] (stereo partly drawn) [Compound 5a, (13aR)-2,3,6-trimethoxy-10-((1-methyl-4-nitro-1H-imidazol-5-yl)methyl)-10,11,12,13,13a,14-hexahydro-9H-dibenzo[f,h]pyrrolo[1,2-b]isoquinolin-10-ium bromide] | 154 µM | […] | […] | […] | […] | 26 | 618 ± 44 nM | 15800 nM | 8.8 | 425 ± 51 nM | […] | 0.13 | 1350 ± 0.126 nM | 1040 ± 21 nM | 327 ± 147 nM | 1530 ± 144 nM |  | 2030 ± 267 nM |  | 5080 ± 519 nM | metabolized into the parent drug (in vitro; mouse, microsomes, 2 μM): […]; DR (Deactivation Ratio) (H460; H460, normoxia, DR = IC50 (prodrug)/IC50 (parent drug)): […]; half-life at 1 μM [6]: 145 ± 4.7 h; half-life at 1 μM [7]: […]; DR (Deactivation Ratio) (HCT116 [4]; HCT116, normoxia, DR = IC50 (prodrug)/IC50 (parent drug)): […]; IC50 (CHO-K1; CHO-K1, read-out: IC50 CHO-K1): […]
